Results as given in patent US11945779B2, “Inhibitors of cancer metastasis through inhibiting migration and invasion of cancer cells” (VSpharmtech, priority 2018, dated 2024).

Experiments:
[1] = system: human-derived colon cancer cell line (HCT-116 luciferase); experiment: Colon cancer liver metastasis implant model in nude mouse (live animal imaging); type: in vivo; conditions: for Cancer metastasis inhibitory effect by whole image data: 20 times, five times a week
Text: In this experiment, a human-derived colon cancer cell line (HCT-116 luciferase) was implanted to the spleen and then the spleen was removed and sutured after four days. In a colon cancer liver metastasis implant model, cancer metastasis inhibitory activity by oral administration of CG-609 was verified using a live animal imaging system. As the animal, an Athymic-NCr NCr-nu SPF 5-week-old nude mouse supplied from Koatech (Pyeongtaek-si, Gyeonggi-do) was used. By adjusting a concentration of cancer cells to 2×10^6 cells/mL, the cell culture solution was injected directly into the spleen using a syringe (31 G needle, ½ cc) by 30 μL per mouse. The drug CG-609 was dissolved to a concentration of 5 mg/kg or 10 mg/kg using 0.5% Tween80 and then orally administered to the mouse in an amount of 10 mL/kg total 20 times on a schedule of five times a week.
HCT-116 luciferase cells were implanted, drug administration started from the day after the cancer cell was implanted, and the cells were imaged a total of seven times until the 25th day, the end of the experiment. During imaging, 50 μL of […] was intraperitoneally administered into each side of the animal's abdomen at a concentration of luciferin 15 mg/mL, and then photographed using an optical imaging system (IVIS-spectrum CT, PerkinElmer). On the final day of the test, the mouse was imaged and then […], and major organs (liver, kidney, and colon) were extracted to be imaged, and then the degree of image signal was measured. The values of all measurement items were tested for statistical significance by comparing a solvent control and a drug administration group using a t-TEST statistical method (FIGS. 10A and 10B).

[2] = system: pancreatic cancer cells CFPAC-1; experiment: Trans-well cancer cell migration inhibition, CFPAC-1; type: cell-based; conditions: CFPAC-1, concentration not given, FIG. 3
Protocol: In order to analyze cancer cell migration inhibitory activity of CG-608, CG-609 or CG-618 prepared in Examples 1, 2, or 9, cell migration inhibitory activity was measured using a trans-well by targeting a colon cancer cell line DLD-1 (ATCC-CCL-221), pancreatic cancer cell lines AsPc-1 (ATCC-CCL-1682). CFPAC-1 (ATCC-CCL-1918). Panc-1 (ATCC-CCL-1469), and Miapaca-2 (ATCC-CCL-1420), a skin cancer cell line A375-P (ATCC-CCL-3224), lung cancer cell lines HCC-827 (ATCC-CCL-2868), A549 (ATCC-CCL-185), and NCI-H460 (ATCC-CCL-177), a prostate cancer cell line DU145 (ATCC-HTB-81), a stomach cancer cell line NuGC-3 (JCRB0822), and an ovarian cancer cell line SKOV-3 (ATCC-HTB-77).
First, the number of DLD-1 cells was measured using a hemocytometer in an RPMI medium without FBS. […] After culture, […] of crystal violet (5 mg/mL of 20% […] was added to each well of the 24-well plate and the trans-well was dyed at room temperature for 30 minutes. The dyed trans-well was washed with PBS and non-migrated cells were wiped off with cotton swabs. The prepared sample was photographed with an inverted microscope mounted with a digital camera (TE 300, Nikon. Japan) and then the number of migrated cells was counted. The degree of inhibiting cell migration was calculated by Equation 1 for a group treated with the sample compared to a control group (DMSO). […]

[3] = system: human pancreatic cancer cell line AsPc-1; experiment: Lamellipodia formation inhibition (confocal microscope), AsPc-1; type: cell-based; conditions: AsPc-1, 6 hours, FIG. 9
Protocol: A human colon cancer cell line DLD-1, a human pancreatic cancer cell line AsPc-1, a human melanoma cell line A375P, and normal cells MCF10A were each cultured to 1×10^5 cell density on a 35 mm high-m dish plate (ibid GmbH). The cells attached to the plate were washed with phosphate buffered saline (PBS) and then treated with DMSO or CG-618 dissolved in DMSO for 6 hours. After removing the cell culture medium from the plate, the plate was washed two times with PBS and treated with 4% paraformaldehyde dissolved in PBS at room temperature for 10 minutes to immobilize the cells. The plate was washed with PBS once and then treated with 0.2% Triton X-100 at room temperature for 10 minutes to enhance cell permeability. The plate was washed with PBS and treated with 1% BSA dissolved in PBS at room temperature for 1 hour to block non-specific bonds. In order to check the distribution in cells of filament actin (F-actin), phalloidin bound with Alexa Fluor 488, which was specifically bound with F-actin, was treated at room temperature for 15 minutes. The plate was washed with PBS three times and then treated with 2 mg/mL 4′,6′-diamidino-2-phenylindole (DAPAI) dissolved in PBS for two minutes at room temperature to dye the nucleus. The plate was washed with PBS three times and filled with 1 mL PBS. […] The obtained images were analyzed by an analysis program (LSM Version 3.2 software).

C[C@H](COc1ccccc1Cc1ccccc1)N1CCCC[C@@H]1C [CG-609, (S)-1-((R)-1-(2-benzylphenoxy)propan-2-yl)-2-methylpiperidine]
Colon metastasis inhibitory effect ([1]; 5 mg/kg oral): 76.9% | Liver metastasis inhibitory effect ([1]; 5 mg/kg oral): 47.7% | Renal metastasis inhibitory effect ([1]; 5 mg/kg oral): 72.4% | Cancer metastasis inhibitory effect by whole image data ([1]; 5 mg/kg oral): 77.9% | Inhibition of cancer metastasis in animal experiment ([1]; 5 mg/kg, 10 times lower dose than benproperine (50 mg/kg), FIGS. 10A and 10B): ≥ 50% | Colon metastasis inhibitory effect ([1]; 10 mg/kg oral): 85.6% | Liver metastasis inhibitory effect ([1]; 10 mg/kg oral): 58.6% | Renal metastasis inhibitory effect ([1]; 10 mg/kg oral): 76.1% | Cancer metastasis inhibitory effect by whole image data ([1]; 10 mg/kg oral): 80.1% | Inhibition of cell migration [2]: ≥ 50%

CC1CCCCN1C(C)COc1ccccc1Cc1ccccc1 (racemic) [CG-618, 1-(1-(2-benzylphenoxy)propan-2-yl)-2-methylpiperidine]
Formation of lamellipodia [3]: inhibits formation of lamellipodia
